Measurements from US7183411B2, “Naphthol, quinoline and isoquinoline-derived urea modulators of vanilloid VR1 receptor” (Janssen Pharmaceutica N.V., priority 2002, dated 2007).

Columns and labels:
[1] = target: T1, human VR1 vanilloid receptors (Homo sapiens, UniProt Q8NER1); test: [3H] RTX binding assay, hVR1 membranes from transfected HEK293 cells; details: human VR1, read-out: Receptor binding Ki
T1 construct: expressed in transfected cells; host or cells: HEK293
Description: Compounds of the present invention were tested for their ability to inhibit the binding of [^3H] RTX to hVR1 receptors in a [^3H] RTX binding assay as previously described (Zhang, Sui-Po. Improved ligand binding assays for vanilloid receptors. PCT Int. Appl. (2002), 29 pp. CODEN: PIXXD2 WO 0233411 A1 20020425 AN 2002:315209; Grant, Elfrida R.; Dubin, Adrienne E.; Zhang, Sui-Po; Zivin, Robert A.; Zhong, Zhong Simultaneous intracellular calcium and sodium flux imaging in human vanilloid receptor 1 (VR1)-transfected human embryonic kidney cells: a method to resolve ionic dependence of VR1-mediated cell death. Journal of Pharmacology and Experimental Therapeutics (2002), 300(1), 9–17.)
HEK293 cells were transfected with human VR1 vanilloid receptors and washed with Hank's Balanced Salt Solution, dissociated with cell dissociation buffer (Sigma), and then centrifuged at 1000×g for 5 min. Cell pellets were homogenized in cold 20 mM HEPES buffer, pH 7.4, containing 5.8 mM NaCl, 320 mM sucrose, 2 mM MgCl2, 0.75 CaCl2 and 5 mM KCl and centrifuged at 1000×g for 15 min. The resultant supernate was then centrifuged at 40000×g for 15 min. The pelleted membranes were kept in an −80° C. freezer.
Approximately 120 μg protein/ml from membranes were incubated with indicated concentrations of [^3H] RTX in 0.5 ml of the HEPES buffer (pH 7.4) containing 0.25 mg/mL fatty acid-free bovine serum albumin at 37° C. for 60 min. The reaction mixture was then cooled to 4° C., 0.1 mg α1-acid glycoprotein added to each sample and incubated at 4° C. for 15 min. The samples were centrifuged at 18500×g for 15 min. The tip of the microcentrifuge tube containing the pellet was cut off. Bound radioactivity was quantified by scintillation counting. Non-specific binding was tested in the presence of 200 nM unlabeled RTX.

[2] = system: capsaicin-induced guinea pig bronchial ring contraction; test: Isolated guinea pig bronchial rings, capsaicin-induced contraction (organ bath)
Description: Aminotetralin VR1 antagonists were tested for their potency to block capsaicin-induced guinea pig bronchial ring contraction in a standard in vitro organ bath assay [Tucker, 2001]. Two mm rings of bronchial tissue obtained from male guinea pigs (325 g) were suspended in normal Krebs solution between two wire hooks under an initial loading tension of 1 gram. The saline was maintained in a 5% CO2 and 95% O2 atmosphere at 37° C. in the presence of indomethacin (5 μM). A sub-maximal dose of 5-Methylfurmethide (5Mef, 1 μM) was added to each tissue to determine responsiveness using an isometric force transducer. After washout, tissues were exposed to compounds or vehicle for 30 min, treated with thiorphan (10 μM, 5% Na2CO3), and primed using KCl in increasing linear concentrations from 1 mM at 1 mM intervals until a slight increase in muscle tone was induced (˜1% of 5Mef response). […] The dose response curve was calculated as % max of the 5-Mef response and estimated pA2 were determined [Tucker, 2001]).

[3] = system: DSS-induced acute colitis; test: Rodent colitis model (5% dextran sulfate sodium); assay type: in vivo, mice or rats; details: preliminary study
Description: 5% Dextran Sulfate Sodium administered in the drinking water of mice or rats for 7 days results in an acute colitis with some morphological changes that are similar to human ulcerative colitis. Among those changes are colon shortening, accumulation of neutrophils and other inflammatory cells, decreases in colon weight, decreases in body weight, tissue damage in the colon, and loss of stool consistency.
Each animal is dosed daily in the morning and late afternoon for BID dosing. Treatment with vehicle or test compound begins on day 0, immediately after initial body weights are taken, and ends on day 6. Water bottles are removed and replaced by graduated water bottles containing 5% DSS in indicated groups. Tap water remains on control groups only. Sufficient DSS drinking water is placed in graduated water bottles and refilled each day to monitor daily output. Animals are weighed daily from day 0 to 7, and animal condition and the consistency of stools recorded. Following sacrifice of the animal on day 7, the colon is surgically removed from the distal rectum (anus) to the cecal-colonic juncture and the colon length and weight measured. Colon slices may be obtained for histological evaluation. […] Water consumption and body weights are measured daily. […] An increase in myeloperoxidase activity occurs in this model and is evaluated separately.

[4] = system: Carrageenan paw-induced thermal hyperalgesia; test: Carrageenan paw-induced thermal hyperalgesia; assay type: in vivo; details: rat, po, reversal of carrageenan thermal hyperalgesia; read-out: CgHP ED50
Description: Each rat is placed on a heated surface (51° C.) in order to measure the time necessary to elicit a response, and an initial (baseline) response time to a thermal stimuli was recorded for each animal. A response is defined as any shaking, licking, or tucking of the treated paw or jumping. Animals not treated with a test compound respond in approximately 20 seconds. The maximal exposure time permitted is 60 seconds to prevent tissue damage. Rats were injected with an irritant (e.g., 1% carrageenan solution in 0.9% saline) subcutaneously into the sub-plantar tissue of the left hind paw to stimulate an acute inflammatory reaction.
Two hours later, the response time of the animal to the thermal stimulus was evaluated and compared to the animal's baseline response time. This shorter response time was recorded as percent hyperalgesia (% H). A cut-off value for % H (usually 75%) was used during analysis to ensure that the animals were hyperalgesic. Animals were then dosed with test drug or vehicle.
At some time(s) later (typically 45 and 90 minutes), the response time of the animal to the thermal stimulus was again evaluated. For each time point, a percent reversal of hyperalgesia (% R) was calculated using the following formula: % R=(Drug Latency−Carrageenan latency)/(Baseline latency−Carrageenan latency). ED50 values were calculated from % R obtained at several drug doses.

human VR1 = target: T2, human VR1 (Homo sapiens, UniProt Q8NER1); test: Human VR1 functional assay (FLIPR intracellular Ca2+, capsaicin challenge); assay type: cell-based; details: read-out: In vitro functional assays hIC50 or EC50
T2 construct: expressed in transfected cells; host or cells: HEK293
T2 sequence (Q8NER1 whole entry): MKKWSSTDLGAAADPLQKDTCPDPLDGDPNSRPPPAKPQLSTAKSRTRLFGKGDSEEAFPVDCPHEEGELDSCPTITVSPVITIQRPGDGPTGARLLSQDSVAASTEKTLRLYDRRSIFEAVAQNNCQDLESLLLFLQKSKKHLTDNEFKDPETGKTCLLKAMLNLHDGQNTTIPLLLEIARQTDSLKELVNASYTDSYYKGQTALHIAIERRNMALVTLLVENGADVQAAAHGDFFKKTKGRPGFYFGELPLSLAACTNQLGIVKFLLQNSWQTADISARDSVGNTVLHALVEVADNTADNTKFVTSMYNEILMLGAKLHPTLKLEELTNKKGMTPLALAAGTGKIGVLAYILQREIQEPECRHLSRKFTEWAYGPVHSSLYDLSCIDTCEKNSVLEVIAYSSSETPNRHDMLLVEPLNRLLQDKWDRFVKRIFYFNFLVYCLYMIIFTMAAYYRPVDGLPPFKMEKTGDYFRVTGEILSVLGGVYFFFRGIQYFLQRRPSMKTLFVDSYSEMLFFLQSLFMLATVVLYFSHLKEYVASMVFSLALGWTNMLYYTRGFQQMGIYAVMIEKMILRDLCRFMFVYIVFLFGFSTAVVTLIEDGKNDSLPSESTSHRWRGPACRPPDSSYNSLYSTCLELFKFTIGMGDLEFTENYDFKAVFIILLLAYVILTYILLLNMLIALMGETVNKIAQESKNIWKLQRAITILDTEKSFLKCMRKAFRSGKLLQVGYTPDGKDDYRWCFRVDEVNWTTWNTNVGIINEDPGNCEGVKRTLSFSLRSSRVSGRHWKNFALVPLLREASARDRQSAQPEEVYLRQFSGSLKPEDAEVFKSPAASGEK
Description: The functional activity of the test compounds was determined by measuring changes in intracellular calcium concentration using a Ca^++-sensitive fluorescent dye and FLIPR™ technology.
HEK293 Cells expressing human VR1 were grown on poly-D-lysine coated 96 well black-walled plates (BD 354640) and 2 days later loaded with Fluo-3/AM for 1 hour and subsequently tested for agonist-induced increases in intracellular Ca^2+ levels using FLIPR™ technology. […] EC50 or IC50 values were determined from dose-response studies.

VR1 (rat spinal cord) = target: T3, VR1 (rat spinal cord) (Rattus norvegicus, UniProt O35433); test: [3H]-RTX binding assay using rat tissue (spinal cord membranes); details: cells marked (rat), read-out: Receptor binding Ki (rat)
T3 construct: Rat spinal cord was homogenized twice with a Polytron; from tissue; host or cells: rat spinal cord membranes
T3 sequence (O35433 whole entry): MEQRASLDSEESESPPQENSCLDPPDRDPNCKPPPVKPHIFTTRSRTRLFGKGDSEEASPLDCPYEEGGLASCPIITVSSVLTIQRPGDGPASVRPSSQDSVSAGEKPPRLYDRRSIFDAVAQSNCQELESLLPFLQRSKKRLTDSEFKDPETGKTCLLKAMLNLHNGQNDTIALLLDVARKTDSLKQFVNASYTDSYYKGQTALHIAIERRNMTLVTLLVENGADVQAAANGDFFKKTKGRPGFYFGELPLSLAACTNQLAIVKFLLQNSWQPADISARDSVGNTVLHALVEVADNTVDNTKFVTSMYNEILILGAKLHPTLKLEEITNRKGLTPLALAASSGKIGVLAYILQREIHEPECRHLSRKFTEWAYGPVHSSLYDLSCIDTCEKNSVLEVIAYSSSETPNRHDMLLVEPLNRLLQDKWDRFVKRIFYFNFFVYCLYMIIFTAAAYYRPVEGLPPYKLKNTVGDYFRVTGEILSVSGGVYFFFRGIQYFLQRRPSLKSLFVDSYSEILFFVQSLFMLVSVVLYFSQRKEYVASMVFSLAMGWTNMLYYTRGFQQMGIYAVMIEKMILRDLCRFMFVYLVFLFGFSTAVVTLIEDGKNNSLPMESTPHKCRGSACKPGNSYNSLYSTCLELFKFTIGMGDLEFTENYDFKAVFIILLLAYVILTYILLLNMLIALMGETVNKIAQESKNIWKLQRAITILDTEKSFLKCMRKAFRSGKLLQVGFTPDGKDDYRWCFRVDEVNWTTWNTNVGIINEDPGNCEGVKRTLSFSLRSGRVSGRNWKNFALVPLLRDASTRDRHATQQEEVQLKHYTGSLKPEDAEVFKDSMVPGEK
Description: Alternatively, a binding assay using rat tissue was used. Rat spinal cord was homogenized twice with a Polytron and centrifuged at 3000 rpm for 10 min in HEPES buffer containing 20 mM HEPES, pH 7.4, NaCl 5.8 mM, sucrose 320 mM, MgCl2 2 mM, CaCl2 0.75 mM and KCl 5 mM. The supernatant was then centrifuged at 18,000 rpm for 20 min. The pellet was saved in a tube and 10 ml assay buffer was added into the tube. The pellet and buffer were mixed with a Polytron. The assay contained 120 μg/ml membrane protein and 0.3–0.6 nM [^3H]-RTX (NEN, Boston) in a total volume of 0.5 ml HEPES buffer. Following-incubation for 60 min at 37 C, the samples were cooled down on ice, and 100 mg of α-acid glycoprotein were added into the samples. After centrifugation at 13,000 rpm for 15 min, the supernatant was aspirated and the tips of tubes were cut off and placed into 6 ml vials. Data were calculated according to the equation: % inhibition=(total binding−binding)*100/(total binding−non specific binding). Ki value values were calculated using a Prism program.

[5] = target: T4, VR1 expressed endogenously on small rat dorsal root ganglion (DRG) neurons (Rattus norvegicus, UniProt O35433); test: Electrophysiologic functional assay using dissociated rat DRG cells; assay type: cell-based; details: read-out: In vitro functional assays Estimated pA2 (rat) (converted)
T4 construct: VR1 expressed endogenously on small rat dorsal root ganglion (DRG) neurons; endogenous in cells; host or cells: dissociated rat DRG neurons
T4 sequence (O35433 whole entry): as above
Description: Compounds are tested for their activity on VR1 expressed endogenously on small rat dorsal root ganglion (DRG) neurons. DRG neurons from normal rats were dissociated (see methods in Chaplan et al., 2003) and whole cell currents mediated by VR1 were recorded using the whole cell patch clamp technique.

[6] = system: capsaicin-induced cough responses; test: Capsaicin-induced cough (antitussive efficacy); assay type: in vivo; details: guinea pig, 25 mg/kg IP at -60 min; vehicle 3.0±0.5; P<0.001
Description: The antitussive activity of intraperitoneally (IP) administered compound is assessed at a single dose level against casaicin-induced cough responses as compared to positive and vehicle controls. Thirty-six male Dunkin-Hartley guinea pigs (295–590 g, mean 425 g) are randomly allocated to one of three groups (n=12 guinea pigs per group). […] Guinea pigs are dosed IP at −60 min with vehicle (15% Solutol in 5% dextrose solution); the positive control codeine (25 mg/kg), or test compound (20 mg/kg in 15% Solutol in 5% dextrose solution). Individual guinea pigs are placed in an exposure chamber with an airflow of 3 L/min at −10 min to acclimatize. […] The mean±SEM number of capsaicin-induced cough responses recorded in vehicle pre-treated guinea pigs was 3.0±0.5. […] ANOVA statistical analysis was used to determine the level of significance.

T1 sequence (Q8NER1 whole entry): as the sequence (Q8NER1 whole entry) above

Q: What does the source list for CC(C)(C)c1ccc(CNC(=O)Nc2cccc3cnccc23)cc1 [Compound 33]?
A: Ki [1]: 0.26 nM; antagonist Kb (from pA2) against capsaicin-induced contraction [2]: 13 nM; protection against colon shortening [3]: did not protect; protection against colon weight loss [3]: did not protect; ED50 [4]: 0.276 mg/kg; IC50 or EC50 (human VR1): 2.7 nM

Q: Which Ki (VR1 (rat spinal cord)) does the source give for O=C(NCc1ccc(-c2cccs2)s1)Nc1cccc2ccc(O)cc12 [Compound 39] here?
A: The Ki was 382 nM.

Q: O=C(NCc1ccc(Cl)c(C(F)(F)F)c1)Nc1cccc2ccc(O)cc12 [Compound 57, 1-(4-Chloro-3-trifluoromethyl-benzyl)-3-(7-hydroxy-naphthalen-1-yl)-urea] was tested. Which Ki [1] did it give?
A: Its Ki is 1.14 nM.

Q: And the ED50 [4]?
A: The ED50 was 0.354 mg/kg.

Q: What about the Kb [5] of the same compound?
A: The Kb was ~10 nM.

Q: For COc1ccc2c3c1O[C@H]1[C@@H](O)C=C[C@H]4[C@@H](C2)N(C)CC[C@@]341 [codeine], which “number of capsaicin-induced cough responses (mean±SEM)” value [6] is on record?
A: Its value is 0.58±0.15 coughs.
